Literature values in paper PMC6021394, “Novel haptens and monoclonal antibodies with subnanomolar affinity for a classical analytical target, ochratoxin A” (Scientific Reports, 2018).

For `C[C@@H]1Cc2c(Cl)cc(C(=O)N[C@@H](Cc3ccccc3)C(=O)O)c(O)c2C(=O)O1` [OTA, Ochratoxin A], the tolerable weekly intake (European Food Safety Authority) is listed as 120 ng/kg of body weight and the IARC carcinogenicity classification (possibly carcinogenic to humans) is listed as “group 2B”.
